Test results: PubChem BioAssay AID2060492 (Molecular Pharmacology Branch, DTP, NCI, 2025)

Test system: 695427-040-R-J1-PDC complex spheroids, viability percent T/C
Test: Anticancer human tumor 695427-040-R-J1-PDC patient-derived colon adenocarcinoma cell line growth inhibition [GQUAD]
Conditions: for IC50: curve of first compound; for viability, T/C: stronger effect = lower value
How it was run: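 Multi-cell-type spheroids of tumor cells with HUVEC and mesenchymal stem cells, treated with drug combinations. Concentrations descend in half-log steps from near clinical Cmax, or from 10 microM where Cmax is unknown; viability read-out.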

[1] = second compound 0.0316 µM, first compound 0.0316 µM
[2] = second compound 0.0316 µM, first compound 0.1 µM
[3] = second compound 0.0316 µM, first compound 0.316 µM
[4] = second compound 0.0316 µM, first compound 1 µM
[5] = second compound 0.0316 µM, first compound 3.16 µM
[6] = second compound 0.0316 µM, first compound 10 µM
[7] = second compound 0.1 µM, first compound 0.0316 µM
[8] = second compound 0.1 µM, first compound 0.1 µM
[9] = second compound 0.1 µM, first compound 0.316 µM
[10] = second compound 0.1 µM, first compound 1 µM
[11] = second compound 0.1 µM, first compound 3.16 µM
[12] = second compound 0.1 µM, first compound 10 µM
[13] = second compound 0.316 µM, first compound 0.0316 µM
[14] = second compound 0.316 µM, first compound 0.1 µM
[15] = second compound 0.316 µM, first compound 0.316 µM
[16] = second compound 0.316 µM, first compound 1 µM
[17] = second compound 0.316 µM, first compound 3.16 µM
[18] = second compound 0.316 µM, first compound 10 µM
[19] = second compound 1 µM, first compound 0.0316 µM
[20] = second compound 1 µM, first compound 0.1 µM
[21] = second compound 1 µM, first compound 0.316 µM
[22] = second compound 1 µM, first compound 1 µM
[23] = second compound 1 µM, first compound 3.16 µM
[24] = second compound 1 µM, first compound 10 µM
[25] = second compound 3.16 µM, first compound 0.0316 µM
[26] = second compound 3.16 µM, first compound 0.1 µM
[27] = second compound 3.16 µM, first compound 0.316 µM
[28] = second compound 3.16 µM, first compound 1 µM
[29] = second compound 3.16 µM, first compound 3.16 µM
[30] = second compound 3.16 µM, first compound 10 µM
[31] = second compound 10 µM, first compound 0.0316 µM
[32] = second compound 10 µM, first compound 0.1 µM
[33] = second compound 10 µM, first compound 0.316 µM
[34] = second compound 10 µM, first compound 1 µM
[35] = second compound 10 µM, first compound 3.16 µM
[36] = second compound 10 µM, first compound 10 µM
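Note: spheroids exposed to compounds for seven days before readout.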

With `Nc1ccn(C2OC(CO)C(O)C2(F)F)c(=O)n1` (centres undefined) + Cc1[nH]c2ccc(F)cc2c1-c1nc2c3cccnc3c3ncccc3c2[nH]1 the IC50 (second compound 0.0316 µM) was > 10 µM, the IC50 (second compound 0.1 µM) was > 10 µM and the IC50 (second compound 0.316 µM) was > 10 µM. For the same molecule, the IC50 (second compound 1 µM) was > 10 µM, the IC50 (second compound 3.16 µM) was 1.65 µM and the IC50 (second compound 10 µM) was 1.44 µM. It also gave a viability, T/C [1] of 78.4%, a viability, T/C [2] of 74.8% and a viability, T/C [3] of 71.3%. For the same molecule, the viability, T/C [4] was 54.6%, the viability, T/C [5] was 56.4% and the viability, T/C [6] was 46.7%. The viability, T/C [7] was 92.2%, the viability, T/C [8] was 75.1% and the viability, T/C [9] was 59%. The viability, T/C [10] was 54.1%, the viability, T/C [11] was 60.5% and the viability, T/C [12] was 52.1%. For the same molecule, the viability, T/C [13] was 86%, the viability, T/C [14] was 70.8% and the viability, T/C [15] was 64.4%. It also gave a viability, T/C [16] of 55.1%, a viability, T/C [17] of 66.6% and a viability, T/C [18] of 46.5%. For the same molecule, the viability, T/C [19] was 87.3%, the viability, T/C [20] was 64.6% and the viability, T/C [21] was 59.2%. For the same molecule, the viability, T/C [22] was 57.9%, the viability, T/C [23] was 63.1% and the viability, T/C [24] was 48.8%. The viability, T/C [25] was 67.6%, the viability, T/C [26] was 55.4% and the viability, T/C [27] was 55.5%. For the same molecule, the viability, T/C [28] was 53.3%, the viability, T/C [29] was 51.4% and the viability, T/C [30] was 39.8%. The viability, T/C [31] was 63.2%, the viability, T/C [32] was 59.4% and the viability, T/C [33] was 57.8%. The viability, T/C [34] was 51%, the viability, T/C [35] was 43% and the viability, T/C [36] was 47.4%.

With `O=C(NO)c1cnc(N2CCN(S(=O)(=O)c3ccc4ccccc4c3)CC2)nc1` + Cc1[nH]c2ccc(F)cc2c1-c1nc2c3cccnc3c3ncccc3c2[nH]1 the IC50 (second compound 0.0316 µM) was > 10 µM, the IC50 (second compound 0.1 µM) was > 10 µM and the IC50 (second compound 0.316 µM) was > 10 µM. For the same molecule, the IC50 (second compound 1 µM) was > 10 µM, the IC50 (second compound 3.16 µM) was > 10 µM and the IC50 (second compound 10 µM) was > 10 µM. For the same molecule, the viability, T/C [1] was 90.4%, the viability, T/C [2] was 106% and the viability, T/C [3] was 94.3%. The viability, T/C [4] was 87.5%, the viability, T/C [5] was 78.7% and the viability, T/C [6] was 74.7%. It also gave a viability, T/C [7] of 98.4%, a viability, T/C [8] of 91.1% and a viability, T/C [9] of 83%. For the same molecule, the viability, T/C [10] was 87%, the viability, T/C [11] was 81.3% and the viability, T/C [12] was 68.5%. For the same molecule, the viability, T/C [13] was 99.1%, the viability, T/C [14] was 89.4% and the viability, T/C [15] was 81.9%. The viability, T/C [16] was 82.6%, the viability, T/C [17] was 80.5% and the viability, T/C [18] was 65.6%. For the same molecule, the viability, T/C [19] was 95%, the viability, T/C [20] was 86% and the viability, T/C [21] was 84.8%. It also gave a viability, T/C [22] of 82%, a viability, T/C [23] of 77.9% and a viability, T/C [24] of 61.5%. For the same molecule, the viability, T/C [25] was 76.5%, the viability, T/C [26] was 71.2% and the viability, T/C [27] was 71.2%. For the same molecule, the viability, T/C [28] was 73.5%, the viability, T/C [29] was 57.3% and the viability, T/C [30] was 54.5%. It also gave a viability, T/C [31] of 69.6%, a viability, T/C [32] of 73.1% and a viability, T/C [33] of 73.8%. The viability, T/C [34] was 60.5%, the viability, T/C [35] was 54.3% and the viability, T/C [36] was 50.5%.
